According to US8541418B2, “Inhibitors of polo-like kinase” (Elan Pharmaceutical, Inc., priority 2009, dated 2013):
Read-outs that look alike come from different tables or passages of the source.

What was measured:
Format in all cases: biochemical
PLK1 = PLK1 (Homo sapiens, UniProt P53350); assay: PLK TR-FRET peptide assay, PLK1
PLK2 = PLK2 (Homo sapiens, UniProt Q9NYY3); assay: PLK TR-FRET peptide assay, PLK2; details: for IC50: read-out: Plk2 IC50; for relative PLK2 activity of the enantiomers: compared with the opposite enantiomer
PLK3 = PLK3 (Homo sapiens, UniProt Q9H4B4); assay: PLK TR-FRET peptide assay, PLK3
[1] = PLK TR-FRET peptide assay, GST-PLK2, 60 min reaction
[2] = GST-PLK3, 15 min reaction, read-out: Plk3 IC50

Sequence of PLK3 (Q9H4B4 whole entry): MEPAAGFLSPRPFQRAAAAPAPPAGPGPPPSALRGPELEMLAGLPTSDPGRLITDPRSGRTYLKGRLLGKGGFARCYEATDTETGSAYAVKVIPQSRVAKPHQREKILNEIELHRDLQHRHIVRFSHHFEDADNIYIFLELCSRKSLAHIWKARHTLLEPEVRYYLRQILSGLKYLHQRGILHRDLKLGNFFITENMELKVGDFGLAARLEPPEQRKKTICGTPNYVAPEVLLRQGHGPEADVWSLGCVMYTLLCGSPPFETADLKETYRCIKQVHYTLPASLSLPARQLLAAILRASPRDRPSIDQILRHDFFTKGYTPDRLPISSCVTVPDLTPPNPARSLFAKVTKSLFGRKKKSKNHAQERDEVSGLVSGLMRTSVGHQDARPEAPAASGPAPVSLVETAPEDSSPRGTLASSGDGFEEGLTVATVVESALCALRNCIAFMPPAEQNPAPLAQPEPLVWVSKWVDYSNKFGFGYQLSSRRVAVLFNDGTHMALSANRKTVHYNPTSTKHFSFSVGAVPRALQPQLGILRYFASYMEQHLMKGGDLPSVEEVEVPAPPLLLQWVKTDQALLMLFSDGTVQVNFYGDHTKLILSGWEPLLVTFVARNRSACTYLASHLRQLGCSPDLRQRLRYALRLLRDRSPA
Sequence of PLK1 (P53350 whole entry): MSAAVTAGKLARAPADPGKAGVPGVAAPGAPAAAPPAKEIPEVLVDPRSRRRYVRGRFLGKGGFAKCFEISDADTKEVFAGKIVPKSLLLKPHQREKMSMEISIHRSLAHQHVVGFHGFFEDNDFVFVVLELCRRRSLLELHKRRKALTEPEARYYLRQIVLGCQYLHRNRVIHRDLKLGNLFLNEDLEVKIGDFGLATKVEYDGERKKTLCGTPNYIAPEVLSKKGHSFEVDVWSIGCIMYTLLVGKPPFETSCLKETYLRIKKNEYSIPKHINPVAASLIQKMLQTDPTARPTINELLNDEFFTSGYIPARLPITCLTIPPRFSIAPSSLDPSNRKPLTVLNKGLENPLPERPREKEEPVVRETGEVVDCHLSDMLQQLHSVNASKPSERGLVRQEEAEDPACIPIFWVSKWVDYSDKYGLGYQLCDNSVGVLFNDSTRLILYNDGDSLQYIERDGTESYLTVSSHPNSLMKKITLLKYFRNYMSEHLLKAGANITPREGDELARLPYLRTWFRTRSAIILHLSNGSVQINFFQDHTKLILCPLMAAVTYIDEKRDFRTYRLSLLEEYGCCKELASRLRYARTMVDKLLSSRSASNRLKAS
Sequence of PLK2 (Q9NYY3 whole entry): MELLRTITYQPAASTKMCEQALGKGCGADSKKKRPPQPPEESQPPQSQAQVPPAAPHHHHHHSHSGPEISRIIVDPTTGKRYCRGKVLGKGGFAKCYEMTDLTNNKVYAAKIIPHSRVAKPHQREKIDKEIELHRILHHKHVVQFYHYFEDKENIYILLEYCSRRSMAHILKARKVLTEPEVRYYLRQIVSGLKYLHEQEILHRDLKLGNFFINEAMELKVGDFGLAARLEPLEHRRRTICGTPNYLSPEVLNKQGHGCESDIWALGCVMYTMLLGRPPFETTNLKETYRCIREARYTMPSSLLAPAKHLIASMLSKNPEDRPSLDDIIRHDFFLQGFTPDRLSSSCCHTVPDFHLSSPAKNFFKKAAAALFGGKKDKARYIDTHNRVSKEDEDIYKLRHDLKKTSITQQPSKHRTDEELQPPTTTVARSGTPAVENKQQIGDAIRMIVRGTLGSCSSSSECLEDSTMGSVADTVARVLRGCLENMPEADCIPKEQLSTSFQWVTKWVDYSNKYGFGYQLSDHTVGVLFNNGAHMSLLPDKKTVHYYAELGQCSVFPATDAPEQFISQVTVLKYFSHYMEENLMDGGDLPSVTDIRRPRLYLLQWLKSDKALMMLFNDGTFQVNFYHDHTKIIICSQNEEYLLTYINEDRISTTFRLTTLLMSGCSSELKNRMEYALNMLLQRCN

Row | SMILES | IC50 (PLK1; GST-PLK1, 60 min reaction) [µM] | IC50 (PLK2; [1]) [µM] | IC50 (PLK3; [2]) [µM] | IC50 (PLK1; GST-PLK1) [µM] | IC50 (PLK2; PLK TR-FRET peptide assay, GST-PLK2) [µM] | IC50 (PLK3; GST-PLK3, read-out: Plk3 IC50) [µM] | relative PLK2 activity of the enantiomers (PLK2) | IC50 (PLK2) [µM]
1 | CCC1C(=O)N(C)c2cnc(-n3ccnc3-c3ccc(F)cc3)nc2N1c1ccc(Cl)cc1 (centres unmarked) [Example 388, 8-(4-chlorophenyl)-7-ethyl-2-(2-(4-fluorophenyl)-1H-imidazol-1-yl)-5-methyl-7,8-dihydropteridin-6(5H)-one] | – | – | – | 1 to 10 | < 1 | 1 to 10 | – | –
2 | CC[C@@H]1C(=O)N(C)c2cnc(-n3ccnc3-c3ccc(C#N)cc3)nc2N1C(C)C [Example 227, (R)-4-(1-(7-ethyl-8-isopropyl-5-methyl-6-oxo-5,6,7,8-tetrahydropteridin-2-yl)-1H-imidazol-2-yl)benzonitrile] | 10 to 50 | < 1 | 10 to 50 | – | – | – | – | –
3 | CC[C@@H]1C(=O)N(C)c2cnc(-c3ccncc3CNC(=O)OC)nc2N1C(C)C [Example 128, (R)-methyl (4-(7-ethyl-8-isopropyl-5-methyl-6-oxo-5,6,7,8-tetrahydropteridin-2-yl)pyridin-3-yl)methylcarbamate] | 10 to 50 | 1 to 10 | 10 to 50 | – | – | – | – | –
4 | CC[C@@]12CCCN1c1nc(-n3ccnc3-c3cccc(-n4cncn4)c3)ncc1N(C)C2=O [Example 273, (S)-2-(2-(3-(1H-1,2,4-triazol-1-yl)phenyl)-1H-imidazol-1-yl)-6a-ethyl-5-methyl-6a,7,8,9-tetrahydropyrrolo[2,1-h]pteridin-6(5H)-one] | 10 to 50 | – | > 50 | – | – | – | – | < 1
5 | CC[C@@H]1C(=O)N(C)c2cnc(N3CCN=C3C3CC3)nc2N1C(C)C [Example 297, (R)-2-(2-cyclopropyl-4,5-dihydro-1H-imidazol-1-yl)-7-ethyl-8-isopropyl-5-methyl-7,8-dihydropteridin-6(5H)-one] | 10 to 50 | 10 to 50 | 10 to 50 | – | – | – | – | –
6 | CC[C@]12CCCCN1c1nc(-n3ccnc3-c3cccc(F)c3)ncc1N(C)C2=O [Example 265, (R)-6a-ethyl-2-(2-(3-fluorophenyl)-1H-imidazol-1-yl)-5-methyl-7,8,9,10-tetrahydro-5H-pyrido[2,1-h]pteridin-6(6aH)-one] | > 50 | 10 to 50 | > 50 | – | – | – | – | –
7 | CC[C@]12CCCCN1c1nc(-n3ccnc3-c3cc(F)cc(F)c3)ncc1N(C)C2=O [Example 250, (R)-2-(2-(3,5-difluorophenyl)-1H-imidazol-1-yl)-6a-ethyl-5-methyl-7,8,9,10-tetrahydro-5H-pyrido[2,1-h]pteridin-6(6aH)-one] | > 50 | > 50 | > 50 | – | – | – | – | –
8 | CCC1C(=O)N(C)c2cnc(-n3cc[n+](C)c3-c3ccccc3)nc2N1NC (centres unmarked) [Example 284, 1-(7-ethyl-5-methyl-8-(methylamino)-6-oxo-5,6,7,8-tetrahydropteridin-2-yl)-3-methyl-2-phenyl-1H-imidazol-3-ium] | > 50 | > 50 | > 50 | – | – | – | – | –
9 | CC[C@@H]1C(=O)N(C)c2cnc(-c3cncnc3-c3ccc(C(F)(F)F)cc3)nc2N1C(C)C [Example 168, (R)-7-ethyl-8-isopropyl-5-methyl-2-(4-(4-(trifluoromethyl)phenyl)pyrimidin-5-yl)-7,8-dihydropteridin-6(5H)-one] | 10 to 50 | 10 to 50 | > 50 | – | – | – | – | –
10 | CCC12CCCCN1c1nc(-n3ccnc3-c3cc(F)cc(F)c3)ncc1N(C)C2=O (racemic) [Example 243, (+/−) 2-(2-(3,5-difluorophenyl)-1H-imidazol-1-yl)-6a-ethyl-5-methyl-7,8,9,10-tetrahydro-5H-pyrido[2,1-h]pteridin-6(6aH)-one] | 10 to 50 | < 1 | > 50 | – | – | – | – | –
11 | CN1C(=O)[C@@H](CC(F)(F)F)N(CCC(F)(F)F)c2nc(-n3ccnc3-c3ccc(F)cc3F)ncc21 [Example 293, (R)-2-(2-(2,4-difluorophenyl)-1H-imidazol-1-yl)-5-methyl-7-(2,2,2-trifluoroethyl)-8-(3,3,3-trifluoropropyl)-7,8-dihydropteridin-6(5H)-one] | 1 to 10 | < 1 | 10 to 50 | – | – | – | more active compound | –

Second part, led by results:

Row | IC50 (PLK1; GST-PLK1, 60 min reaction) [µM] | IC50 (PLK2; [1]) [µM] | IC50 (PLK3; [2]) [µM] | IC50 (PLK1; GST-PLK1) [µM] | IC50 (PLK2; PLK TR-FRET peptide assay, GST-PLK2) [µM] | IC50 (PLK3; GST-PLK3, read-out: Plk3 IC50) [µM] | relative PLK2 activity of the enantiomers (PLK2) | SMILES | IC50 (PLK2) [µM]
12 | 1 to 10 | < 1 | 1 to 10 | – | – | – | – | CC[C@@H]1C(=O)N(C)c2cnc(-n3ccnc3-c3ccc(F)c(Cl)c3)nc2N1C(C)C [Example 186, (R)-2-(2-(3-chloro-4-fluorophenyl)-1H-imidazol-1-yl)-7-ethyl-8-isopropyl-5-methyl-7,8-dihydropteridin-6(5H)-one] | –
13 | 1 to 10 | < 1 | 10 to 50 | – | – | – | – | CC[C@@H]1C(=O)N(C)c2cnc(-n3ccnc3-c3ccc(F)c(F)c3)nc2N1C1CCC1 [Example 48, (R)-8-cyclobutyl-2-(2-(3,4-difluorophenyl)-1H-imidazol-1-yl)-7-ethyl-5-methyl-7,8-dihydropteridin-6(5H)-one] | –
14 | < 1 | < 1 | 1 to 10 | – | – | – | – | [2H]C([2H])([2H])N1C(=O)C(C([2H])([2H])C([2H])([2H])[2H])N(C([2H])(C([2H])([2H])[2H])C([2H])([2H])[2H])c2nc(-n3ccnc3-c3cccc(F)c3)ncc21 (racemic) [Example 180, 7-perdeuteroethyl-2-(2-(3-fluorophenyl)-1H-imidazol-1-yl)-8-perdeuteroisopropyl-5-trideuteromethyl-7,8-dihydropteridin-6(5H)-one] | –
15 | 1 to 10 | < 1 | 1 to 10 | – | – | – | – | CC[C@@H]1C(=O)N(C)c2cnc(-n3ccnc3-c3ccc(F)c(F)c3)nc2N1C1CC(F)C1 (stereo partly drawn) [Example 229, (R)-2-(2-(3,4-difluorophenyl)-1H-imidazol-1-yl)-7-ethyl-8-(3-fluorocyclobutyl)-5-methyl-7,8-dihydropteridin-6(5H)-one] | –
16 | < 1 | < 1 | < 1 | – | – | – | – | CC[C@@H]1C(=O)N(C)c2cnc(-c3ccncc3-c3ccccc3)nc2N1C1CCCC1 [Example 85, (R)-8-cyclopentyl-7-ethyl-5-methyl-2-(3-phenylpyridin-4-yl)-7,8-dihydropteridin-6(5H)-one] | –
17 | 1 to 10 | < 1 | 10 to 50 | – | – | – | – | CC[C@@H]1C(=O)N(C)c2cnc(-c3c[nH]nc3-c3ccc(C(F)(F)F)cc3)nc2N1C(C)C [Example 167, (R)-7-ethyl-8-isopropyl-5-methyl-2-(3-(4-(trifluoromethyl)phenyl)-1H-pyrazol-4-yl)-7,8-dihydropteridin-6(5H)-one] | –
18 | < 1 | < 1 | 1 to 10 | – | – | – | – | CCC1C(=O)N(C)c2cnc(-c3cn[nH]c3-c3nccs3)nc2N1c1ccc(F)cc1 (centres unmarked) [Example 370] | –
19 | 1 to 10 | < 1 | 1 to 10 | – | – | – | – | CC[C@@H]1C(=O)N(C)c2cnc(-n3ccnc3C3=CCCC3)nc2N1C1CCCC1 [Example 231, (R)-2-(2-cyclopentenyl-1H-imidazol-1-yl)-8-cyclopentyl-7-ethyl-5-methyl-7,8-dihydropteridin-6(5H)-one] | –
20 | 1 to 10 | < 1 | 10 to 50 | – | – | – | – | CC[C@@]12CCCN1c1nc(-c3cn[nH]c3-c3ccccc3)ncc1N(C)C2=O [Example 305, (S)-6a-ethyl-5-methyl-2-(5-phenyl-1H-pyrazol-4-yl)-6a,7,8,9-tetrahydropyrrolo[2,1-h]pteridin-6(5H)-one] | –
21 | 1 to 10 | 1 to 10 | > 50 | – | – | – | – | CC[C@@H]1C(=O)N(C)c2cnc(-n3ccnc3N3CCOCC3)nc2N1C1CCCC1 [Example 87, (R)-8-cyclopentyl-7-ethyl-5-methyl-2-(2-morpholino-1H-imidazol-1-yl)-7,8-dihydropteridin-6(5H)-one] | –
22 | < 1 | < 1 | 1 to 10 | – | – | – | – | CC[C@@H]1C(=O)N(C)c2cnc(-n3ccnc3-c3ccc(F)cn3)nc2N1C1CCCC1 [Example 271, (R)-8-cyclopentyl-7-ethyl-2-(2-(5-fluoropyridin-2-yl)-1H-imidazol-1-yl)-5-methyl-7,8-dihydropteridin-6(5H)-one] | –
23 | 1 to 10 | < 1 | 10 to 50 | – | – | – | – | CC[C@@H]1C(=O)N(C)c2cnc(-n3cccn3)nc2N1C1CCCC1 [Example 42, (R)-8-cyclopentyl-7-ethyl-5-methyl-2-(1H-pyrazol-1-yl)-7,8-dihydropteridin-6(5H)-one] | –
24 | 1 to 10 | < 1 | 1 to 10 | – | – | – | more active compound | CC[C@@H]1C(=O)N(C)c2cnc(-n3ccnc3-c3ccc(F)cc3)nc2N1c1cccc(C#N)c1 [Example 358, (R)-3-(7-ethyl-2-(2-(4-fluorophenyl)-1H-imidazol-1-yl)-5-methyl-6-oxo-6,7-dihydropteridin-8(5H)-yl)benzonitrile] | –
25 | 1 to 10 | < 1 | 1 to 10 | – | – | – | – | CC[C@@H]1C(=O)N(C)c2cnc(-c3scnc3-c3ccn[nH]3)nc2N1C(C)C [Example 348, (R)-2-(4-(1H-pyrazol-5-yl)thiazol-5-yl)-7-ethyl-8-isopropyl-5-methyl-7,8-dihydropteridin-6(5H)-one] | –
26 | < 1 | < 1 | < 1 | – | – | – | – | CC[C@@H]1C(=O)N(C)c2cnc(-n3ncnc3-c3ccccc3)nc2N1C1CCC1 [Example 208, (R)-8-cyclobutyl-7-ethyl-5-methyl-2-(5-phenyl-1H-1,2,4-triazol-1-yl)-7,8-dihydropteridin-6(5H)-one] | –
27 | < 1 | < 1 | 1 to 10 | – | – | – | – | CC[C@@H]1C(=O)N(C)c2cnc(-n3ccnc3-c3ccc(F)c(F)c3)nc2N1C1CCC(F)(F)C1 (stereo partly drawn) [Example 237, (7R)-8-(3,3-difluorocyclopentyl)-2-(2-(3,4-difluorophenyl)-1H-imidazol-1-yl)-7-ethyl-5-methyl-7,8-dihydropteridin-6(5H)-one] | –
28 | 1 to 10 | < 1 | 10 to 50 | – | – | – | – | CC[C@@H]1C(=O)N(C)c2cnc(-n3ccnc3-c3ccncc3)nc2N1CCC(F)(F)F [Example 234, (R)-7-ethyl-5-methyl-2-(2-(pyridin-4-yl)-1H-imidazol-1-yl)-8-(3,3,3-trifluoropropyl)-7,8-dihydropteridin-6(5H)-one] | –
